Experimental data: patent US6737383B1, “Herbicidal oxadiazolidines” (priority 1999, dated 2004)

Columns and labels:
[1] = tested on: rice; experiment: Test B flood test rice; type: in vivo, Oryza sativa
Method in brief: (§1)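 Plants were grown to the 2-leaf stage before treatment with test chemical, then held in a greenhouse for twelve to sixteen days. Injury was visually rated against untreated controls on a 0–10 scale, where 0 is no effect and 10 is complete control.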

[2] = tested on: giant foxtail; experiment: Test B pre/postemergence giant foxtail; type: in vivo, Setaria faberii
Method in brief: (§2)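 Herbicidal effect was estimated by eye on a ten-point control scale after plants spent twelve to sixteen days in a greenhouse following soil or foliar treatment. Foliar sprays targeted plants at one to four leaves; all doses were formulated in a non-phytotoxic solvent with surfactant.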

[3] = tested on: morningglory; experiment: Test B pre/postemergence morningglory; type: in vivo, Ipomoea hederacea
Method in brief: as §2

[4] = tested on: sugar beet; experiment: Test B pre/postemergence sugar beet; type: in vivo, Beta vulgaris
Method in brief: as §2

[5] = tested on: blackgrass; experiment: Test B pre/postemergence blackgrass; type: in vivo, Alopecurus myosuroides
Method in brief: as §2

[6] = tested on: duck salad; experiment: Test B flood test duck salad; type: in vivo, Heteranthera limosa
Method in brief: as §1

[7] = tested on: crabgrass; experiment: Test B pre/postemergence crabgrass; type: in vivo, Digitaria sanguinalis
Method in brief: as §2

[8] = tested on: bedstraw; experiment: Test B pre/postemergence bedstraw; type: in vivo, Galium aparine
Method in brief: as §2

[9] = tested on: wheat; experiment: Test B pre/postemergence wheat; type: in vivo, Triticum aestivum
Method in brief: as §2

[10] = tested on: purple nutsedge; experiment: Test B pre/postemergence purple nutsedge; type: in vivo, Cyperus rotundus
Method in brief: as §2

[11] = tested on: pigweed; experiment: Test B pre/postemergence pigweed; type: in vivo, Amaranthus retroflexus
Method in brief: as §2

[12] = tested on: bamyardgrass; experiment: Test B flood test barnyardgrass; type: in vivo, Echinochloa crus-galli
Method in brief: as §1

[13] = tested on: cocklebur; experiment: Test B pre/postemergence cocklebur; type: in vivo, Xanthium strumarium
Method in brief: as §2

[14] = tested on: wild oat; experiment: Test B pre/postemergence wild oat; type: in vivo, Avena fatua
Method in brief: as §2

[15] = tested on: velvetleaf; experiment: Test B pre/postemergence velvetleaf; type: in vivo, Abutilon theophrasti
Method in brief: as §2

[16] = tested on: surinam grass; experiment: Test B pre/postemergence surinam grass; type: in vivo, Brachiaria decumbens
Method in brief: as §2

[17] = Rate 62 g/ha, headed Pre-emergence (flood test species), scale 0 to 10 (0 no effect, 10 complete control)
[18] = Rate 125 g/ha, Pre-emergence, flood test species, scale 0 to 10 where 0 is no effect and 10 is complete control
[19] = Rate 250 g/ha, Pre-emergence, flood-test species, scale 0 to 10, 0 is no effect, 10 is complete control
[20] = Rate 500 g/ha, Pre-emergence, flood test species, scale 0 to 10 (0 no effect, 10 complete control)
[21] = Preemergence, Rate 62 g/ha, scale of 0 to 10 where 0 is no effect and 10 is complete control
[22] = Preemergence, Rate 250 g/ha, scale of 0 to 10 where 0 is no effect and 10 is complete control
[23] = Preemergence, Rate 500 g/ha, scale of 0 to 10 where 0 is no effect and 10 is complete control
[24] = Rate 62 g/ha, Postemergence, scale of 0 to 10 where 0 is no effect and 10 is complete control
[25] = Rate 125 g/ha, Postemergence, scale 0 to 10
[26] = Rate 125 g/ha, Preemergence, scale of 0 to 10 where 0 is no effect and 10 is complete control
[27] = Rate 500 g/ha, Postemergence, scale 0 to 10, 0 no effect, 10 complete control

Cc1ccccc1-n1c(=O)on(C(=O)N(c2ccc(C(C)C)cc2)C(C)C)c1=O [Compound 231]
Rice plant response rating [1, 17]: 0 | Rice plant response rating [1, 18]: 0 | Rice plant response rating [1, 19]: 0 | Rice plant response rating [1, 20]: 0 | Giant foxtail plant response rating [2, 21]: 0 | Giant foxtail plant response rating [2, 22]: 3 | Plant response rating, Giant foxtail [2, 23]: 8 | Giant foxtail plant response rating [2, 24]: 0 | Giant foxtail plant response rating [2, 25]: 0 | Giant foxtail plant response rating [2, 26]: 0 | Plant response rating (0 to 10; 0 is no effect, 10 is complete control), Giant foxtail ([2]; Rate 250 g/ha, Postemergence): 0 | Giant foxtail plant response rating [2, 27]: 0 | Morningglory plant response rating [3, 21]: 0 | Morningglory plant response rating [3, 22]: 0 | Plant response rating, Morningglory [3, 23]: 6 | Morningglory plant response rating [3, 24]: 1 | Morningglory plant response rating [3, 25]: 2 | Morningglory plant response rating [3, 26]: 0 | Plant response rating (0 to 10; 0 is no effect, 10 is complete control), Morningglory ([3]; Rate 250 g/ha, Postemergence): 3 | Morningglory plant response rating [3, 27]: 4 | Sugarbeets plant response rating [4, 21]: 0 | Sugarbeets plant response rating [4, 22]: 0 | Plant response rating, Sugarbeets [4, 23]: 0 | Sugarbeets plant response rating [4, 24]: 0 | Sugarbeets plant response rating [4, 25]: 0 | Sugarbeets plant response rating [4, 26]: 0 | Plant response rating (0 to 10; 0 is no effect, 10 is complete control), Sugarbeets ([4]; Rate 250 g/ha, Postemergence): 0 | Sugarbeets plant response rating [4, 27]: 0 | Blackgrass plant response rating [5, 21]: 0 | Blackgrass plant response rating [5, 22]: 0 | Plant response rating, Blackgrass [5, 23]: 0 | Blackgrass plant response rating [5, 24]: 0 | Blackgrass plant response rating [5, 25]: 0 | Blackgrass plant response rating [5, 26]: 0 | Plant response rating (0 to 10; 0 is no effect, 10 is complete control), Blackgrass ([5]; Rate 250 g/ha, Postemergence): 0 | Blackgrass plant response rating [5, 27]: 0 | Ducksalad plant response rating [6, 17]: 0 | Ducksalad plant response rating [6, 18]: 0 | Ducksalad plant response rating [6, 19]: 0 | Ducksalad plant response rating [6, 20]: 0 | Crabgrass plant response rating [7, 21]: 0 | Crabgrass plant response rating [7, 22]: 0 | Plant response rating, Crabgrass [7, 23]: 7 | Crabgrass plant response rating [7, 24]: 0 | Crabgrass plant response rating [7, 25]: 0 | Crabgrass plant response rating [7, 26]: 0 | Plant response rating (0 to 10; 0 is no effect, 10 is complete control), Crabgrass ([7]; Rate 250 g/ha, Postemergence): 0 | Crabgrass plant response rating [7, 27]: 2 | Bedstraw plant response rating [8, 21]: 0 | Bedstraw plant response rating [8, 22]: 0 | Plant response rating, Bedstraw [8, 23]: 0 | Bedstraw plant response rating [8, 24]: 0 | Bedstraw plant response rating [8, 25]: 0 | Bedstraw plant response rating [8, 26]: 0 | Plant response rating (0 to 10; 0 is no effect, 10 is complete control), Bedstraw ([8]; Rate 250 g/ha, Postemergence): 0 | Bedstraw plant response rating [8, 27]: 0 | Wheat plant response rating [9, 21]: 0 | Wheat plant response rating [9, 22]: 0 | Plant response rating, Wheat [9, 23]: 0 | Wheat plant response rating [9, 24]: 0 | Wheat plant response rating [9, 25]: 0 | Wheat plant response rating [9, 26]: 0 | Plant response rating (0 to 10; 0 is no effect, 10 is complete control), Wheat ([9]; Rate 250 g/ha, Postemergence): 0 | Wheat plant response rating [9, 27]: 0 | Nutsedge plant response rating [10, 21]: 0 | Nutsedge plant response rating [10, 22]: 0 | Plant response rating, Nutsedge [10, 23]: 0 | Nutsedge plant response rating [10, 24]: 0 | Nutsedge plant response rating [10, 25]: 0 | Nutsedge plant response rating [10, 26]: 0 | Plant response rating (0 to 10; 0 is no effect, 10 is complete control), Nutsedge ([10]; Rate 250 g/ha, Postemergence): 0 | Nutsedge plant response rating [10, 27]: 0 | Redroot pigweed plant response rating [11, 21]: 0 | Redroot pigweed plant response rating [11, 22]: 0 | Plant response rating, Redroot pigweed [11, 23]: 0 | Redroot pigweed plant response rating [11, 24]: 0 | Redroot pigweed plant response rating [11, 25]: 0 | Redroot pigweed plant response rating [11, 26]: 0 | Plant response rating (0 to 10; 0 is no effect, 10 is complete control), Redroot pigweed ([11]; Rate 250 g/ha, Postemergence): 0 | Redroot pigweed plant response rating [11, 27]: 0 | Barnyardgrass plant response rating [12, 17]: 0 | Barnyardgrass plant response rating [12, 18]: 0 | Barnyardgrass plant response rating [12, 19]: 0 | Barnyardgrass plant response rating [12, 20]: 0 | Cocklebur plant response rating [13, 21]: 0 | Cocklebur plant response rating [13, 22]: 0 | Plant response rating, Cocklebur [13, 23]: 0 | Cocklebur plant response rating [13, 24]: 0 | Cocklebur plant response rating [13, 25]: 0 | Cocklebur plant response rating [13, 26]: 0 | Plant response rating (0 to 10; 0 is no effect, 10 is complete control), Cocklebur ([13]; Rate 250 g/ha, Postemergence): 0 | Cocklebur plant response rating [13, 27]: 0 | Wild oats plant response rating [14, 21]: 0 | Wild oats plant response rating [14, 22]: 0 | Plant response rating, Wild oats [14, 23]: 0 | Wild oats plant response rating [14, 24]: 0 | Wild oats plant response rating [14, 25]: 0 | Wild oats plant response rating [14, 26]: 0 | Plant response rating (0 to 10; 0 is no effect, 10 is complete control), Wild oats ([14]; Rate 250 g/ha, Postemergence): 0 | Wild oats plant response rating [14, 27]: 0 | Velvetleaf plant response rating [15, 21]: 0 | Velvetleaf plant response rating [15, 22]: 0 | Plant response rating, Velvetleaf [15, 23]: 0 | Velvetleaf plant response rating [15, 24]: 0 | Velvetleaf plant response rating [15, 25]: 0 | Velvetleaf plant response rating [15, 26]: 0 | Plant response rating (0 to 10; 0 is no effect, 10 is complete control), Velvetleaf ([15]; Rate 250 g/ha, Postemergence): 0 | Velvetleaf plant response rating [15, 27]: 0 | B. signalgrass plant response rating [16, 21]: 0 | B. signalgrass plant response rating ([16]; Preemergence, Rate 250 g/ha, scale 0 to 10, 0 is no effect, 10 is complete control): 0 | Plant response rating, B. signalgrass [16, 23]: 0 | B. signalgrass plant response rating [16, 24]: 0 | B. signalgrass plant response rating ([16]; Rate 125 g/ha, Postemergence, scale 0 (no effect) to 10 (complete control)): 0 | B. signalgrass plant response rating [16, 26]: 0 | Plant response rating (0 to 10; 0 is no effect, 10 is complete control), B. signalgrass ([16]; Rate 250 g/ha, Postemergence): 0 | B. signalgrass plant response rating [16, 27]: 0
